Data from the supplement of paper PMC10307832.

How the values were obtained:
Test in all cases: relative viability (nuclei count vs DMSO), 5 days (fraction); higher = more cells survive
Palbociclib + Crizotinib = compound: CC(=O)c1c(C)c2cnc(Nc3ccc(N4CCNCC4)cn3)nc2n(C2CCCC2)c1=O [Palbociclib] + C[C@@H](Oc1cc(-c2cnn(C3CCNCC3)c2)cnc1N)c1c(Cl)ccc(F)c1Cl [Crizotinib] (partner 1 µM)
Procedure, shortened: (§1)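 After 5 days of treatment, lung cancer cells in 1536-well plates were fixed and stained in a single step (final 0.05% Triton X-100, 1% formaldehyde, 1 ug/ml Hoechst) and their nuclei counted on 4× images. Treatment had been applied by pin tool the day after seeding as one drug alone or as a fixed anchor-drug dose with five library-drug doses (not always all listed) in √10 steps. Relative viability is the nuclei count of treated wells divided by that of vehicle wells, and values are medians of duplicate plates.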

Palbociclib + Linsitinib = compound: CC(=O)c1c(C)c2cnc(Nc3ccc(N4CCNCC4)cn3)nc2n(C2CCCC2)c1=O [Palbociclib] + C[C@]1(O)C[C@@H](c2nc(-c3ccc4ccc(-c5ccccc5)nc4c3)c3c(N)nccn32)C1 [Linsitinib] (partner 1 µM)
Procedure, shortened: as §1

Palbociclib + Tozasertib = compound: CC(=O)c1c(C)c2cnc(Nc3ccc(N4CCNCC4)cn3)nc2n(C2CCCC2)c1=O [Palbociclib] + Cc1cc(Nc2cc(N3CCN(C)CC3)nc(Sc3ccc(NC(=O)C4CC4)cc3)n2)n[nH]1 [Tozasertib] (partner 0.1 µM)
Procedure, shortened: as §1

Palbociclib + Dasatinib = compound: CC(=O)c1c(C)c2cnc(Nc3ccc(N4CCNCC4)cn3)nc2n(C2CCCC2)c1=O [Palbociclib] + Cc1nc(Nc2ncc(C(=O)Nc3c(C)cccc3Cl)s2)cc(N2CCN(CCO)CC2)n1 [Dasatinib] (partner 0.075 µM)
Procedure, shortened: as §1

Row | Cell Line | relative viability (Palbociclib + Crizotinib; first compound 0.01 µM) | relative viability (Palbociclib + Crizotinib; first compound 0.03162 µM) | relative viability (Palbociclib + Crizotinib; first compound 0.1 µM) | relative viability (Palbociclib + Crizotinib; first compound 0.3162 µM) | relative viability (Palbociclib + Crizotinib; first compound 1 µM) | relative viability (Palbociclib + Linsitinib; first compound 0.01 µM) | relative viability (Palbociclib + Linsitinib; first compound 0.03162 µM) | relative viability (Palbociclib + Linsitinib; first compound 0.1 µM) | relative viability (Palbociclib + Linsitinib; first compound 0.3162 µM) | relative viability (Palbociclib + Linsitinib; first compound 1 µM) | relative viability (Palbociclib + Tozasertib; first compound 0.01 µM) | relative viability (Palbociclib + Tozasertib; first compound 0.03162 µM) | relative viability (Palbociclib + Tozasertib; first compound 0.1 µM) | relative viability (Palbociclib + Tozasertib; first compound 0.3162 µM) | relative viability (Palbociclib + Tozasertib; first compound 1 µM) | relative viability (Palbociclib + Dasatinib; first compound 0.01 µM) | relative viability (Palbociclib + Dasatinib; first compound 0.03162 µM) | relative viability (Palbociclib + Dasatinib; first compound 0.1 µM) | relative viability (Palbociclib + Dasatinib; first compound 0.3162 µM) | relative viability (Palbociclib + Dasatinib; first compound 1 µM)
1 | NCI-H2228 | 0.447 | 0.45 | 0.406 | 0.31 | 0.369 | 0.51 | 0.573 | 0.674 | 0.598 | 0.83 | 0.247 | 0.235 | 0.247 | 0.261 | 0.23 | 0.546 | 0.449 | 0.418 | 0.409 | 0.408
2 | LOU-NH91 | 0.745 | 0.676 | 0.584 | 0.592 | 0.505 | 1.02 | 0.79 | 0.668 | 0.6 | 0.605 | 0.778 | 0.51 | 0.541 | 0.575 | 0.452 | 0.66 | 0.425 | 0.429 | 0.434 | 0.41
3 | A-427 | 0.963 | 0.83 | 0.668 | 0.728 | 0.614 | 1.15 | 1.08 | 1.01 | 0.942 | 0.806 | 0.203 | 0.205 | 0.224 | 0.227 | 0.209 | 0.672 | 0.607 | 0.561 | 0.523 | 0.485
4 | NCI-H1993 | 0.806 | 0.757 | 0.718 | 0.617 | 0.625 | 0.706 | 0.722 | 0.648 | 0.693 | 0.676 | 0.612 | 0.572 | 0.575 | 0.507 | 0.509 | 0.68 | 0.542 | 0.509 | 0.415 | 0.439
5 | NCI-H650 | 0.619 |  | 0.446 | 0.58 | 0.475 | 0.866 |  | 0.646 | 0.635 | 0.436 | 0.784 | 0.378 | 0.639 | 0.588 | 0.576 | 0.516 | 0.328 | 0.355 | 0.398 | 0.289
6 | LXF-289 | 0.747 | 0.811 | 0.782 | 0.684 | 0.612 | 0.914 | 0.959 | 0.99 | 0.88 | 0.734 | 0.175 | 0.2 | 0.19 | 0.233 | 0.248 | 0.208 | 0.0993 | 0.164 | 0.148 | 0.174
7 | LK-2 | 0.247 |  | 0.23 | 0.227 | 0.246 | 0.521 | 0.486 | 0.468 | 0.434 | 0.608 | 0.167 |  | 0.15 | 0.196 | 0.167 | 0.356 |  | 0.305 | 0.301 | 0.321
8 | BEN | 0.831 | 0.701 | 0.719 | 0.722 | 0.475 | 1.14 | 0.759 | 0.618 | 0.747 | 0.497 | 0.563 | 0.429 | 0.541 | 0.608 | 0.697 | 0.39 | 0.324 | 0.229 | 0.235 | 0.208
